Results as given in patent US20120172384A1, “HETEROCYCLYLAMINOPYRIMIDINES AS KINASE INHIBITORS” (priority 2009, published 2012).

target: T1, JAK3 (Homo sapiens, UniProt P52333); test: JAK3 kinobeads assay; type: binding; conditions: cell lysate, dot blot with JAK3 specific antibody
T1 construct: endogenous in cells
T1 sequence (P52333 1-1124): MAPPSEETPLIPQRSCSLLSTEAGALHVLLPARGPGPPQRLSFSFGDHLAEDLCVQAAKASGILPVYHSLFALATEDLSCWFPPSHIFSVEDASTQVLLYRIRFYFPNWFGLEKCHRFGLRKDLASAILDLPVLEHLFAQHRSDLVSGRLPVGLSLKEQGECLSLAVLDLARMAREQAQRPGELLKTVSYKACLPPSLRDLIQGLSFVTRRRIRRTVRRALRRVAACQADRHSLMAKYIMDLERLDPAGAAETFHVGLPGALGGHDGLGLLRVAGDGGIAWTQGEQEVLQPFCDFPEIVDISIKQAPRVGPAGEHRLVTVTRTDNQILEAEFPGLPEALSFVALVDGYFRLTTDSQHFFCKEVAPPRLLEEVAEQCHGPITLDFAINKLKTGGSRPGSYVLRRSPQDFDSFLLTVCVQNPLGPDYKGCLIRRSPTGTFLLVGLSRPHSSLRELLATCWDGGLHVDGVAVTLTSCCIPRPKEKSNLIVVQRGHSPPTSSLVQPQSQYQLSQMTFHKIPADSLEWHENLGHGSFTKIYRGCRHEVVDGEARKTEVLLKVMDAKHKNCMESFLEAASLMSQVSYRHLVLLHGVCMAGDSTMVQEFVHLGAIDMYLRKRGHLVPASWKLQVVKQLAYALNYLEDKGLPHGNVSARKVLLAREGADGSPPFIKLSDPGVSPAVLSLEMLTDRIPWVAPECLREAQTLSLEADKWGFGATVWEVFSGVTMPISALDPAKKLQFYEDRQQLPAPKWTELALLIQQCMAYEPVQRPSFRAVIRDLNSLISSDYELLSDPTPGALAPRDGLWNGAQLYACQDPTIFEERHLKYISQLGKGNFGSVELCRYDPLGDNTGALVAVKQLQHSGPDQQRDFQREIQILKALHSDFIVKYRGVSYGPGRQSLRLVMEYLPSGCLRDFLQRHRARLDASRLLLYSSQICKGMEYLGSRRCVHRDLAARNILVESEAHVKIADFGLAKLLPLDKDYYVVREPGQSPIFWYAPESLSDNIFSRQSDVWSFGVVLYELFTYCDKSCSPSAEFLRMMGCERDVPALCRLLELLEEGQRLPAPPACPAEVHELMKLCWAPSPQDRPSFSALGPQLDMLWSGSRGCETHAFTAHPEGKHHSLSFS
Protocol: The compounds of the present invention as described in the previous examples were tested in the ZAP-70 kinobeads assay as described (EP-A 1862802 and WO-A 2007/137867). Briefly, test compounds (at various concentrations) and the affinity matrix with the immobilized aminopyrido-pyrimidine ligand 24 are added to cell lysate aliquots and allowed to bind to the proteins in the lysate sample. After the incubation time the beads with captured proteins are separated from the lysate. Bound proteins are then eluted and the presence ZAP-70 is detected and quantified using a specific antibody in a dot blot procedure and the Odyssey infrared detection system.
Compounds were tested by the procedure described in Example 102 but using a JAK3 specific antibody (Cell Signaling Technology, Inc., Danvers, US, catalogue number 3775) instead of a ZAP70 antibody.

Row | SMILES | IC50
1 | CS(=O)(=O)Nc1ccccc1Nc1nc(Nc2cn[nH]c2)ncc1Cl [Example 25, N-(2-(2-(1H-pyrazol-4-ylamino)-5-chloropyrimidin-4-ylamino)phenyl)methanesulfonamide] | ≤ 100 nM
2 | COc1nn(CC(F)(F)F)cc1Nc1ncc(F)c(Nc2ccccc2NS(C)(=O)=O)n1 [Example 74, N-(2-((5-fluoro-2-((3-methoxy-1-(2,2,2-trifluoroethyl)-1H-pyrazol-4-yl)amino)pyrimidin-4-yl)amino)phenyl)methanesulfonamide] | 1000 to 10000 nM
3 | Cc1cc(Nc2ncc(Cl)c(Nc3ccccc3NS(=O)(=O)C3CC3)n2)nn1C [Example 55, N-(2-((5-chloro-2-((1,5-dimethyl-1H-pyrazol-3-yl)amino)pyrimidin-4-yl)amino)phenyl)cyclopropanesulfonamide] | 100 to 1000 nM
4 | COCCn1cc(Nc2ncc(Cl)c(Nc3cccc(F)c3NS(C)(=O)=O)n2)cn1 [Example 93, N-(2-((5-chloro-2-((1-(2-methoxyethyl)-1H-pyrazol-4-yl)amino)pyrimidin-4-yl)amino)-6-fluorophenyl)methanesulfonamide] | ≤ 100 nM
5 | Cc1nn(CC(F)F)cc1Nc1ncc(Cl)c(Nc2ccccc2NS(C)(=O)=O)n1 [Example 81, N-(2-((5-chloro-2-((1-(2,2-difluoroethyl)-3-methyl-1H-pyrazol-4-yl)amino)pyrimidin-4-yl)amino)phenyl)methanesulfonamide] | ≤ 100 nM
6 | CCn1nc(Nc2ncc(Cl)c(Nc3ccccc3NS(C)(=O)=O)n2)cc1C [Example 59, N-(2-((5-chloro-2-((1-ethyl-5-methyl-1H-pyrazol-3-yl)amino)pyrimidin-4-yl)amino)phenyl)methanesulfonamide] | ≤ 100 nM
7 | CNC(=O)c1cc(Nc2ncc(Cl)c(Nc3ccccc3NS(C)(=O)=O)n2)nn1C [Example 97, 3-((5-chloro-4-((2-(methylsulfonamido)phenyl)amino)pyrimidin-2-yl)amino)-N,1-dimethyl-1H-pyrazole-5-carboxamide] | ≤ 100 nM
8 | Cn1cc(Nc2ncc(Cl)c(Nc3ccccc3NS(=O)(=O)C3CC3)n2)cn1 [Example 58, N-(2-((5-chloro-2-((1-methyl-1H-pyrazol-4-yl)amino)pyrimidin-4-yl)amino)phenyl)cyclopropanesulfonamide] | ≤ 100 nM
9 | COc1ccc(Nc2nc(Nc3ccn(C(C)C)n3)ncc2F)c(NS(C)(=O)=O)c1 [Example 48, N-(2-((5-fluoro-2-((1-isopropyl-1H-pyrazol-3-yl)amino)pyrimidin-4-yl)amino)-5-methoxyphenyl)methanesulfonamide] | 100 to 1000 nM
10 | CCS(=O)(=O)Nc1ccccc1Nc1nc(Nc2ccn(C)n2)ncc1F [Example 63, N-(2-((5-fluoro-2-((1-methyl-1H-pyrazol-3-yl)amino)pyrimidin-4-yl)amino)phenyl)ethanesulfonamide] | 1000 to 10000 nM
11 | CS(=O)(=O)Nc1ccccc1Nc1nc(Nc2cnn(CC(F)F)c2)ncc1F [Example 85, N-(2-((2-((1-(2,2-difluoroethyl)-1H-pyrazol-4-yl)amino)-5-fluoropyrimidin-4-yl)amino)phenyl)methanesulfonamide] | ≤ 100 nM
12 | COc1ccc(Nc2nc(Nc3cc(C)n(C)n3)ncc2F)c(NS(C)(=O)=O)c1 [Example 47, N-(2-((2-((1,5-dimethyl-1H-pyrazol-3-yl)amino)-5-fluoropyrimidin-4-yl)amino)-5-methoxyphenyl)methanesulfonamide] | 100 to 1000 nM
13 | Cn1ccc(Nc2ncc(Cl)c(Nc3cccc(F)c3NS(C)(=O)=O)n2)n1 [Example 70, N-(2-((5-chloro-2-((1-methyl-1H-pyrazol-3-yl)amino)pyrimidin-4-yl)amino)-6-fluorophenyl)methanesulfonamide] | ≤ 100 nM
14 | Cc1cc(Nc2ncc(Cl)c(Nc3cccc(F)c3NS(C)(=O)=O)n2)nn1C [Example 78, N-(2-((5-chloro-2-((1,5-dimethyl-1H-pyrazol-3-yl)amino)pyrimidin-4-yl)amino)-6-fluorophenyl)methanesulfonamide] | 100 to 1000 nM
15 | Cc1nn(CC(F)F)cc1Nc1ncc(F)c(Nc2ccccc2NS(C)(=O)=O)n1 [Example 72, N-(2-((2-((1-(2,2-difluoroethyl)-3-methyl-1H-pyrazol-4-yl)amino)-5-fluoropyrimidin-4-yl)amino)phenyl)methanesulfonamide] | 100 to 1000 nM
16 | CC(C)n1ccc(Nc2ncc(Br)c(Nc3ccccc3NS(C)(=O)=O)n2)n1 [Example 49, N-(2-((5-bromo-2-((1-isopropyl-1H-pyrazol-3-yl)amino)pyrimidin-4-yl)amino)phenyl)methanesulfonamide] | ≤ 100 nM
17 | CCCn1ccc(Nc2ncc(Cl)c(Nc3ccccc3NS(C)(=O)=O)n2)n1 [Example 46, N-(2-((5-chloro-2-((1-propyl-1H-pyrazol-3-yl)amino)pyrimidin-4-yl)amino)phenyl)methanesulfonamide] | ≤ 100 nM
18 | COCCn1cc(Nc2ncc(Cl)c(Nc3ccccc3NS(C)(=O)=O)n2)cn1 [Example 52, N-(2-((5-chloro-2-((1-(2-methoxyethyl)-1H-pyrazol-4-yl)amino)pyrimidin-4-yl)amino)phenyl)methanesulfonamide] | ≤ 100 nM
19 | CCNC(=O)c1cc(Nc2ncc(Cl)c(Nc3ccccc3NS(C)(=O)=O)n2)nn1C [Example 100, 3-((5-chloro-4-((2-(methylsulfonamido)phenyl)amino)pyrimidin-2-yl)amino)-N-ethyl-1-methyl-1H-pyrazole-5-carboxamide] | ≤ 100 nM
20 | CCS(=O)(=O)Nc1ccccc1Nc1nc(Nc2cnn(C)c2)ncc1F [Example 62, N-(2-((5-fluoro-2-((1-methyl-1H-pyrazol-4-yl)amino)pyrimidin-4-yl)amino)phenyl)ethanesulfonamide] | 100 to 1000 nM
21 | CCS(=O)(=O)Nc1ccccc1Nc1nc(Nc2cnn(C)c2)ncc1Cl [Example 57, N-(2-((5-chloro-2-((1-methyl-1H-pyrazol-4-yl)amino)pyrimidin-4-yl)amino)phenyl)ethanesulfonamide] | ≤ 100 nM
22 | CS(=O)(=O)Nc1ccccc1Nc1nc(Nc2ccon2)ncc1Br [Example 50, N-(2-((5-bromo-2-(isoxazol-3-ylamino)pyrimidin-4-yl)amino)phenyl)methanesulfonamide] | ≤ 100 nM
23 | Cn1cc(Nc2ncc(F)c(Nc3cccc(F)c3NS(C)(=O)=O)n2)cn1 [Example 99, N-(2-fluoro-6-((5-fluoro-2-((1-methyl-1H-pyrazol-4-yl)amino)pyrimidin-4-yl)amino)phenyl)methanesulfonamide] | ≤ 100 nM
24 | COc1nn(CC(F)F)cc1Nc1ncc(Cl)c(Nc2ccccc2NS(C)(=O)=O)n1 [Example 80, N-(2-((5-chloro-2-((1-(2,2-difluoroethyl)-3-methoxy-1H-pyrazol-4-yl)amino)pyrimidin-4-yl)amino)phenyl)methanesulfonamide] | ≤ 100 nM
25 | Cc1cc(Nc2ncc(F)c(Nc3ccccc3NS(C)(=O)=O)n2)nn1CC(F)(F)F [Example 75, N-(2-((5-fluoro-2-((5-methyl-1-(2,2,2-trifluoroethyl)-1H-pyrazol-3-yl)amino)pyrimidin-4-yl)amino)phenyl)methanesulfonamide] | 1000 to 10000 nM
26 | CCn1nc(Nc2ncc(Cl)c(Nc3cccc(F)c3NS(C)(=O)=O)n2)cc1C [Example 91, N-(2-((5-chloro-2-((1-ethyl-5-methyl-1H-pyrazol-3-yl)amino)pyrimidin-4-yl)amino)-6-fluorophenyl)methanesulfonamide] | ≤ 100 nM
27 | CC(C)n1ccc(Nc2ncc(Cl)c(Nc3ccccc3NS(=O)(=O)C3CC3)n2)n1 [Example 54, N-(2-((5-chloro-2-((1-isopropyl-1H-pyrazol-3-yl)amino)pyrimidin-4-yl)amino)phenyl)cyclopropanesulfonamide] | 1000 to 10000 nM
28 | COc1nn(CC(F)(F)F)cc1Nc1ncc(Cl)c(Nc2ccccc2NS(C)(=O)=O)n1 [Example 82, N-(2-((5-chloro-2-((3-methoxy-1-(2,2,2-trifluoroethyl)-1H-pyrazol-4-yl)amino)pyrimidin-4-yl)amino)phenyl)methanesulfonamide] | 100 to 1000 nM
